From PMC9525908, “α-Crystallin chaperone mimetic drugs inhibit lens γ-crystallin aggregation: Potential role for cataract prevention” (The Journal of Biological Chemistry, 2022) come the findings set out here.

Format in all cases: biochemical
The target in assay [1] is T1, HγD-ox (Homo sapiens, UniProt P07320).
T1 construct: made in house; host or cells: Escherichia coli BL21(DE3) pLysS, pET3d vector
T1 sequence (P07320 1-174): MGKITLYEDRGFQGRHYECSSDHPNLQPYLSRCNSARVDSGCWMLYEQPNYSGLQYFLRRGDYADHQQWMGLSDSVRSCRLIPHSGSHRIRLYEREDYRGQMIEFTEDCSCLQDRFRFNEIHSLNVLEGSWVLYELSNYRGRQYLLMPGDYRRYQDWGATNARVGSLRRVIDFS
In words: Turbidity (600 nm) of oxidized HγD heated 10 min at 72 °C. As to conditions: 1.4 mg/ml with DTPA, 100 and 500 μM bis-ANS, 100 μM drug C, 500 μM drug M. From the text:
(§1) In postsubmission experiments, we attempted to find mechanistic clues relevant to the use of an H2O2 oxidation step prior to the thermal stress used during the initial drug screen. For this reason, we did a comparative study of oxidized (HγD-ox) versus native HγD (HyD-nat), hypothesizing that bis-ANS would both act like the drugs and provide information on the role of exposed hydrophobicity ([40]). HγD was oxidized in diethylenetriaminepentaacetic acid […] phosphate buffer to facilitate hydroxyl radical formation and protein damage, followed by dialysis against DTPA-treated buffer to eliminate the known proaggregating effects of divalent metals ([32]) in the subsequent steps. […] Overall protective effects were more pronounced for the oxidized than nonoxidized form of HγD. […] In the hope to obtain clues on the impact of bis-ANS, drugs C, G, and M on protein aggregation status, native PAGE was performed (Fig. 3G). Polymers greater than 250 kD are present in unheated HγD-nat but only the size of 75 to 100 kD in HγD-ox. […] Other techniques will be needed to assess the relationship between drugs and aggregate size.

Assay [2] deals with T2, WT-HγD crystallin (Homo sapiens, UniProt P07320).
T2 construct: made in house; host or cells: E. coli BL21(DE3) pLysS, pET3d vector
T2 sequence (P07320 1-174): T1 sequence (P07320 1-174)
The experiment in a line: Thermal unfolding of WT-HγD by fluorescence ratio (Tm). To be noted: 100 μM agent, 360/320 nm ratio; 78 ± 0.1 °C without agent. From the text:
His-tag free recombinant HγD crystallin produced in Escherichia coli using pET3d or pET17b expression vector was used to investigate the effects of compounds C and G against thermal-induced unfolding and aggregate formation. The antiaggregation potency of drug C and G was reconfirmed by dynamic light scattering (DLS) (Fig. 2A). […] There is a decrease in the size of aggregates from as high as 7261 nm without drugs to 30.5 nm with drug C and 84.9 nm with drug G. Drug M has moderate activity with mean aggregate size of 569 nm radius (Table S2). […] Furthermore, we investigated whether these drugs can prevent thermal unfolding of HγD (Fig. 2C). […] It is the temperature at which 50% of the protein unfolds.
(§2) Thermal denaturation study was monitored using fluorescence spectroscopy. Protein solutions (10 μM) in the presence and absence of drugs or bis-ANS (100 μM) were heated continuously from 30 to 95 °C, and the fluorescence data were collected every 5 °C after 1 min equilibration at the given temperature. Unfolding data were fit to Greene and Pace’s two-state model ([82]) using GraphPad Prism software (GraphPad Software, Inc).

Assay [3] deals with T1, HγD-ox. The experiment in a line: Thermal unfolding (Tm) of oxidized HγD. As to conditions: 100 μM agent, 360/320 nm ratio; 68 ± 0.07 °C without agent.
Description: as §1, §2

SMILES strings stand for the structures. “Also recorded” adds a separate entry of the source.

For `O=S(=O)(O)c1cccc2c(-c3ccc(Nc4ccccc4)c4c(S(=O)(=O)O)cccc34)ccc(Nc3ccccc3)c12` [bis-ANS, bis-8-anilino-1-naphthalene sulfonic acid], the “Effect on aggregation/turbidity of HγD-ox” value in assay [1] was “strongly suppressed; also recorded: potently inhibited aggregation”. In addition, the “Tm of HγD-nat” value in assay [2] came to 82 ± 0.02 °C. Also, in assay [3], the “Tm of HγD-ox” value was 78 ± 0.1 °C.
